Tests used:
CAIX [1] = target: T1, CAIX (Homo sapiens, UniProt Q16790); experiment: Stopped-flow CO2 hydration, CAIX activity before and after dialysis; format: biochemical; conditions: for CAIX catalytic activity after 32 hours of dialysis: […] CAIX incubated 2 h with 15 μM AV19-37 or 100 μM AV19-36, dialyzed in Tris buffer pH 7
Description: A—CAIX incubated for 2 hours with compounds and the CO2 hydration was measured. B—CAIX was incubated for 2 hours with the compound and then the complex was dialyzed for 32 hours in Tris buffer (pH 7.0). Black curves represent CAIX catalyzed CO2 hydration reaction. Grey curves are spontaneous CO2 hydration without the CA enzyme.
CO2 hydration velocities were measured by recording absorbance of phenol red (final concentration 50 μM) at 557 nm by using Applied Photophysics SX.18 MV-R stopped-flow spectrometer.

CAIII = CAIII (Homo sapiens, UniProt P07451); experiment: Mass spectrometry (Q-TOF) of covalent modification of CAIII; format: binding; conditions: CAIII in the presence of ligand
CAIX [2] = target: T1, CAIX; experiment: Isothermal titration calorimetry (ITC) binding to CAIX; conditions: pH 7.0, TRIS chloride buffer, 37° C., FIG. 1D
Description: A—Raw data of CAIX unfolding in the presence of different compound concentrations. B—dependence of CAIX melting temperature Tm on ligand concentration. […] C—raw ITC curve at pH 7.0, TRIS chloride buffer, at 37° C. D—Integrated ITC curve.

Sequence of CAIII (P07451 whole entry): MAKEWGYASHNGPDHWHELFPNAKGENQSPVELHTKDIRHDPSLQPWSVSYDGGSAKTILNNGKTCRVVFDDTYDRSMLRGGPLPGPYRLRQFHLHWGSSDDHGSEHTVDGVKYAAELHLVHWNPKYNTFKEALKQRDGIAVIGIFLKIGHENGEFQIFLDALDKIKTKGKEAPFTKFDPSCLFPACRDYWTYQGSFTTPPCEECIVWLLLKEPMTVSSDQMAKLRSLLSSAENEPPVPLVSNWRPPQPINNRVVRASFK

covalent modification by MS (CAIII) | compound binding stoichiometry (CAIX [2]) | CAIX catalytic activity after 2 hours of incubation with compound (CAIX [1]; […] CAIX, 15 μM compound, CO2 hydration, 25° C., pH 7.5) | SMILES | CAIX catalytic activity after 32 hours of dialysis (CAIX [1])
– | – | – | CC(=O)OCCSc1c(F)c(F)c(S(N)(=O)=O)c(F)c1F [AV19-36, 2-((2,3,5,6-tetrafluoro-4-sulfamoylphenyl)thio)ethyl acetate] | partially restored its catalytic activity
did not show a covalent modification | ~1 | lost its catalytic activity | CC(=O)OCCS(=O)(=O)c1c(F)c(F)c(S(N)(=O)=O)c(F)c1NC1CCCCCCC1 [AV19-37, 2-((2-(cyclooctylamino)-3,5,6-trifluoro-4-sulfamoylphenyl)sulfonyl)ethyl acetate] | not restored

From patent US20250066291A1, “TARGETED COVALENT INHIBITORS FOR CARBONIC ANHYDRASES” (VILNIUS UNIVERSITY, priority 2023, published 2025)
